The source of these data is ChEMBL document CHEMBL3085662, “Overman rearrangement and Pomeranz-Fritsch reaction for the synthesis of benzoazepinoisoquinolones to discover novel antitumor agents” (Eur J Med Chem, 2013).

pIC50: −log10 of the molar value. Where only a bound is given, the exact number is not on record here.

The subject of one assay is K562. Kind of assay: Cytotoxicity against human K562 cells at 10 uM after 72 hrs by MTT assay. The format is functional. The settings on record: K562, 72 h. (Tetrazolium dyes change colour on reduction, which living cells bring about.)
Assay [1] can be described thus: Cytotoxicity against human NCI-H1115 cells at 10 uM after 72 hrs by MTT assay. Format: functional. The settings on record: NCI-H1115, 72 h.
Assay [2] relates to A-375. Kind of assay: Cytotoxicity against human A375 cells after 72 hrs by MTT assay. The settings on record: A-375, 72 h. Format: functional, cell-based.
Assay [3] in a line: Cytotoxicity against human Jurkat E6-1 cells at 10 uM after 72 hrs by MTT assay. The format is functional.
The test system of another assay is HT-29. As to the kind of experiment: Cytotoxicity against human HT-29 cells at 10 uM after 72 hrs by MTT assay. Format: functional. The settings on record: HT-29, 72 h.
The test system of another assay is NCI-H69. Kind of assay: Cytotoxicity against human NCI-H69 cells at 10 uM after 72 hrs by MTT assay. The settings on record: NCI-H69, 72 h. Format: functional.
Assay [4] concerns HCT-116. Kind of assay: Cytotoxicity against human HCT116 cells after 72 hrs by MTT assay. The settings on record: HCT-116, 72 h. Format: functional, cell-based.
Assay [5] relates to A-375. Kind of assay: Cytotoxicity against human A375 cells at 10 uM after 72 hrs by MTT assay. The format is functional. The settings on record: A-375, 72 h.
In a further assay the test system is PC-3. As to the kind of experiment: Cytotoxicity against human PC3 cells at 10 uM after 72 hrs by MTT assay. Format: functional. The settings on record: PC-3, 72 h.
In assay [6] the test system is HCT-116. As to the kind of experiment: Cytotoxicity against human HCT116 cells at 10 uM after 72 hrs by MTT assay. The format is functional. The settings on record: HCT-116, 72 h.
In a further assay the test system is NCI-N87. As to the kind of experiment: Cytotoxicity against human NCI-N87 cells at 10 uM after 72 hrs by MTT assay. Format: functional. Particulars: NCI-N87, 72 h.
The next assay is described as follows: cells. Format: functional. The settings on record: Homo sapiens, 786-0, 72 h.
The nature of assay [7]: Cytotoxicity against human LN18 cells at 10 uM after 72 hrs by MTT assay. Format: functional. Particulars: LN-18, 72 h.
Assay [8] can be described thus: Cytotoxicity against human U937 cells at 10 uM after 72 hrs by MTT assay. Format: functional. The settings on record: U-937, 72 h.
The next assay relates to HepG2. As to the kind of experiment: Cytotoxicity against human HepG2 cells at 10 uM after 72 hrs by MTT assay. Format: functional. The settings on record: HepG2, 72 h.
The subject of the next assay is MDA-MB-231. Kind of assay: Cytotoxicity against human MDA-MB-231 cells at 10 uM after 72 hrs by MTT assay. Format: functional. Particulars: MDA-MB-231, 72 h.

Description for cells: Cytotoxicity against human 786-O cells at 10 uM after 72 hrs by MTT assay

On to `COc1ccc2cc3n(c(=O)c2c1OC)CC=Cc1cc2c(cc1-3)OCO2`, for which the inhibition (as a rule, how much of the control response was suppressed) at 10 µM in the assay on K562 is 51%; in [1], 77.7%; in assay [3], 73%; in the assay with HT-29, 50.3%; in the assay on NCI-H69, 56.8%; in the assay with A-375 [5], 86.5%. Moreover, the inhibition at 10 µM was 58.4% in the assay on PC-3; 59.1% in the assay with HCT-116 [6]; 46% with NCI-N87; 61.9% in “cells”; 56.4% in assay [7]; 66.9% in assay [8]. Moreover, the inhibition at 10 µM in the assay with HepG2 was 54.6%; in the assay on MDA-MB-231, 39.1%. Besides, the negative logarithm of the IC50 (pIC50) (in general, −log10 of the IC50, conventionally taken in molar units) was 6.23 with A-375 [2] and 5.31 in the assay on HCT-116 [4].

Turning to `C=CCn1c(-c2cc3c(cc2C=C)OCO3)cc2ccc(OC)c(OC)c2c1=O`, the pIC50 with A-375 [2] was 6.77; in the assay on HCT-116 [4] it was 6.19.

Regarding `COc1cc2c(cc1OC)-c1cc3ccc(OC)c(OC)c3c(=O)n1CC=C2`, the pIC50 with A-375 [2] is 5.68; in the assay on HCT-116 [4] it was 5.05.

With `COc1ccc2cc(-c3ccc4c(c3)OCO4)[nH]c(=O)c2c1OC`, the pIC50 in the assay with A-375 [2] was 5.10; with HCT-116 [4] it was less than 5.00.

For `COc1ccc(-c2cc3ccc(OC)c(OC)c3c(=O)[nH]2)cc1OC`, the negative logarithm of the IC50 (pIC50) in the assay with A-375 [2] and with HCT-116 [4] was less than 5.00 throughout.

Take `C=Cc1cc2c(cc1-c1cc3ccc(OC)c(OC)c3c(=O)[nH]1)OCO2`: the negative-log IC50 (pIC50) with A-375 [2] was 6.37; in the assay with HCT-116 [4], 5.81.

On to `C=CCn1c(-c2ccc3c(c2)OCO3)cc2ccc(OC)c(OC)c2c1=O`, for which the values for the pIC50 in the assay with A-375 [2] and in the assay on HCT-116 [4] were 6.70 and 6.07, respectively.

`C=CCn1c(-c2ccc(OC)c(OC)c2)cc2ccc(OC)c(OC)c2c1=O`: the values for the pIC50 in the assay with A-375 [2] and with HCT-116 [4] were 6.30 and less than 5.00, respectively.

On to `C=CCOc1nc(-c2ccc3c(c2)OCO3)cc2ccc(OC)c(OC)c12`, for which the negative-log IC50 (pIC50) in the assay on A-375 [2] and with HCT-116 [4] was less than 5.00 each time.

Consider `C=CCOc1nc(-c2ccc(OC)c(OC)c2)cc2ccc(OC)c(OC)c12`, for which the pIC50 in the assay with A-375 [2] and in the assay with HCT-116 [4] was less than 5.00 throughout.

With `COc1ccc2cc(-c3ccc4c(c3)OCO4)n(CCC=O)c(=O)c2c1OC`, the negative-log IC50 (pIC50) was 5.53 in the assay on A-375 [2] and 5.33 with HCT-116 [4].

Consider `COc1ccc(-c2cc3ccc(OC)c(OC)c3c(=O)n2CCC=O)cc1OC`, for which the pIC50 is 5.24 in the assay with A-375 [2] and less than 5.00 with HCT-116 [4].

Regarding `CO/C=C/Cn1c(-c2ccc3c(c2)OCO3)cc2ccc(OC)c(OC)c2c1=O`, the figures for the pIC50 in the assay on A-375 [2] and with HCT-116 [4] were 6.96 and 6.38, respectively.

As to `COc1ccc2cc(-c3ccc4c(c3)OCO4)n(CC=O)c(=O)c2c1OC`, the pIC50 was 5.42 in the assay on A-375 [2] and 5.03 with HCT-116 [4].

Consider `COc1ccc2cc3n(c(=O)c2c1OC)CC(O)C(O)c1cc2c(cc1-3)OCO2` (centres undefined), for which the inhibition at 10 µM with K562 stood at 15.6%; in assay [1] it was 25.8%; in assay [3] it was 14.8%; with HT-29, 7.56%; in the assay with NCI-H69, 19.8%; in the assay on A-375 [5] it was 51.1%. For the same molecule, the inhibition at 10 µM was determined as 33.9% in the assay with PC-3; 32.8% with HCT-116 [6]; 18.3% with NCI-N87; 11% in the assay “cells”; 36.5% in assay [7]; 23.5% in assay [8]. Also, the inhibition at 10 µM in the assay with HepG2 amounted to 20.9%; with MDA-MB-231 it was 9.29%. Moreover, the negative logarithm of the IC50 (pIC50) in the assay with A-375 [2] is 5.05; in the assay on HCT-116 [4] it was 4.65.

As for `COc1ccc2cc(-c3ccc4c(c3)OCO4)n(CC(O)CO)c(=O)c2c1OC` (racemic), the pIC50 with A-375 [2] and with HCT-116 [4] was less than 5.00 each time.

Regarding `CNC(=O)c1cc(Oc2ccc(NC(=O)Nc3ccc(Cl)c(C(F)(F)F)c3)cc2)ccn1` [SORAFENIB], the negative logarithm of the IC50 (pIC50) was 5.12 with A-375 [2] and 5.25 with HCT-116 [4].

Regarding `CCCS(=O)(=O)Nc1ccc(F)c(C(=O)c2c[nH]c3ncc(-c4ccc(Cl)cc4)cc23)c1F` [VEMURAFENIB], the results for the negative-log IC50 (pIC50) in the assay on A-375 [2] and with HCT-116 [4] were 6.74 and less than 4.52, respectively.
